Experimental data reported in patent US10738028B2, “Spiro three-membered ring, spiro five-membered ring peptide deformylase inhibitor and use thereof in antibacteria and anti-tumor” (priority 2016, dated 2020).

How the values were obtained:
Format in all cases: cell-based
[1] = system: Enterococcus faecalis (EFA); experiment: MIC, two-fold agar dilution (CLSI), clinical isolates
Description: (§1) 1. The invention adopts the two-fold agar dilution method recommended by the operating procedure of antimicrobial susceptibility testing set by American Clinical and Laboratory Standards Institute (CLSI) to determine the Minimum Inhibitory Concentration (MIC) of the test samples against the tested strains.

[2] = system: Enterococcus faecium (EFM); experiment: as above
Description: as §1

[3] = system: Escherichia coli (including ESBLs, non-ESBLs); experiment: as above
Description: as §1

[4] = system: Moraxella catarrhalis (BCA); experiment: as above
Description: as §1

[5] = system: Streptococcus pneoumoniae (SPN); experiment: as above
Description: as §1

[6] = system: methicillin-resistant Staphylococcus aureus (MRSA); experiment: as above
Description: as §1

[7] = system: methicillin-resistant Staphylococcus epidermidis (MRSE); experiment: as above
Description: as §1

[8] = system: methicillin-sensitive Staphylococcus aureus (MSSA); experiment: as above
Description: as §1

[9] = system: methicillin-sensitive Staphylococcus epidermidis (MSSE); experiment: as above
Description: as §1

[10] = system: HCT-116 colorectal cancer cell line; experiment: CCK-8 proliferation inhibition; details: Homo sapiens, HCT-116, 72 h, concentration of 30 μM; 72 hours; CCK-8; read-out: HCT116 inhibition rate/%
Method: (1) HCT-116 colorectal cancer cell line, A549 lung cancer cell line, MGC-803 gastric cancer cell line, BEL-7402 liver cancer cell line, Jurkat T cell leukemia cell line, HL60 acute myeloid leukemia cell line, Hela cervical cancer cell line, MCF-7 breast cancer cell line, PC3 prostate cancer cell line and SAOS-2 osteosarcoma cell line were made into single cell suspension, 180 μL of which was inoculated into 96-well culture plate, which was cultured overnight in CO2 incubator (37° C., 5% CO2, 95% air).
(2) Each of the spiro three-membered ring, spiro five membered ring peptide deformylase inhibitors was dissolved in DMSO, and was further formulated into drug solution with required different final concentration using corresponding cell culture medium. The drug solutions were added to the above cells respectively (20 μL/well), with the control group added with 1‰ DMSO, and cultured in a CO2 incubator for 72 hours.
(3) After incubation for 72 hours, the culture solution was decanted, and 100 μL of 1:10 diluted CCK-8 solution was added.
Wherein, in step (1), the concentration of the single cell suspension was 2000 cells/well.
Wherein, in step (2), HCT-116 cells were cultured in McCoy's 5A medium (containing 10% newborn bovine serum, 1% double antibody); A549 and PC3 cells were cultured in F12 medium (containing 10% newborn bovine serum, 1% double antibody); MGC-803, BEL-7402, SAOS-2, Jurkat and HL60 cells were cultured in 1640 medium (containing 10% newborn bovine serum, 1% double antibody); and MCF-7 and Hela cells were cultured in DMEM high glucose medium (containing 10% newborn bovine serum, 1% double antibody).

CCCC[C@H](CN(O)C=O)C(=O)N1CC2(CC2)C[C@H]1C(=O)Nc1nc(C)cs1 [Example 19]
32 µg/mL: MIC (anti-bacterial activity) ([3]; strain ECO+ 15-1)
8 µg/mL: MIC (anti-bacterial activity) ([1]; strain EFA 15-1) | MIC (anti-bacterial activity) ([1]; strain EFA 15-2) | MIC (anti-bacterial activity) ([1]; strain EFA 15-3) | MIC (anti-bacterial activity) ([1]; strain EFA 15-4) | MIC (anti-bacterial activity) ([1]; strain EFA 15-5) | MIC (anti-bacterial activity) ([1]; strain EFA 15-6) | MIC (anti-bacterial activity) ([1]; strain EFA 15-9) | MIC (anti-bacterial activity) ([2]; strain EFM 15-1)
1 µg/mL: MIC (anti-bacterial activity) ([4]; strain BCA 14-1) | MIC (anti-bacterial activity) ([4]; strain BCA 14-4)
0.015 µg/mL: MIC (anti-bacterial activity) ([9]; strain MSSE 15-6)
6%: inhibition at 30 µM [10]
0.125 µg/mL: MIC (anti-bacterial activity) ([4]; strain BCA 14-5) | MIC (anti-bacterial activity) ([4]; strain BCA 14-10) | MIC (anti-bacterial activity) ([6]; strain MRSA 15-1) | MIC (anti-bacterial activity) ([6]; strain MRSA 15-2) | MIC (anti-bacterial activity) ([7]; strain MRSE 15-2) | MIC (anti-bacterial activity) ([7]; strain MRSE 15-3) | MIC (anti-bacterial activity) ([7]; strain MRSE 15-7) | MIC (anti-bacterial activity) ([8]; strain MSSA 15-3) | MIC (anti-bacterial activity) ([8]; strain MSSA 15-4) | MIC (anti-bacterial activity) ([9]; strain MSSE 15-3) | MIC (anti-bacterial activity) ([9]; strain MSSE 15-4)
> 32 µg/mL: MIC (anti-bacterial activity) ([3]; strain ECO+ 15-2) | MIC (anti-bacterial activity) ([3]; strain ECO+ 15-3) | MIC (anti-bacterial activity) ([3]; strain ECO+ 15-4) | MIC (anti-bacterial activity) ([3]; strain ECO− 15-1) | MIC (anti-bacterial activity) ([3]; strain ECO− 15-2) | MIC (anti-bacterial activity) ([3]; strain ECO− 15-3) | MIC (anti-bacterial activity) ([3]; strain ECO− 15-4)
2 µg/mL: MIC (anti-bacterial activity) ([2]; strain EFM 15-4) | MIC (anti-bacterial activity) ([2]; strain EFM 15-6)
4 µg/mL: MIC (anti-bacterial activity) ([2]; strain EFM 15-2) | MIC (anti-bacterial activity) ([5]; strain SPN 16-2)
0.06 µg/mL: MIC (anti-bacterial activity) ([7]; strain MRSE 15-1)
0.25 µg/mL: MIC (anti-bacterial activity) ([2]; strain EFM 15-3) | MIC (anti-bacterial activity) ([2]; strain EFM 15-5) | MIC (anti-bacterial activity) ([4]; strain BCA 14-7) | MIC (anti-bacterial activity) ([4]; strain BCA 14-8) | MIC (anti-bacterial activity) ([5]; strain SPN 16-4) | MIC (anti-bacterial activity) ([6]; strain MRSA 15-4) | MIC (anti-bacterial activity) ([8]; strain MSSA 15-6)
0.5 µg/mL: MIC (anti-bacterial activity) ([4]; strain BCA 14-6)
0.03 µg/mL: MIC (anti-bacterial activity) ([6]; strain MRSA 15-3) | MIC (anti-bacterial activity) ([8]; strain MSSA 15-5) | MIC (anti-bacterial activity) ([9]; strain MSSE 15-5)

CCCC[C@H](CN(O)C=O)C(=O)N1CC2(CC2)C[C@H]1C(=O)Nc1cc(C)on1 [Example 21, (S)-5-((R)-2-((N-hydroxyformamido)methyl)hexanoyl)-N-(5-methylisoxazol-3yl)-5-spiro[2.4]heptane-6-carboxamide]
4 µg/mL: MIC (anti-bacterial activity) ([1]; strain EFA 15-6) | MIC (anti-bacterial activity) ([1]; strain EFA 15-9) | MIC (anti-bacterial activity) ([5]; strain SPN 16-2)
2 µg/mL: MIC (anti-bacterial activity) ([2]; strain EFM 15-6)
16 µg/mL: MIC (anti-bacterial activity) ([1]; strain EFA 15-1) | MIC (anti-bacterial activity) ([1]; strain EFA 15-2) | MIC (anti-bacterial activity) ([1]; strain EFA 15-4) | MIC (anti-bacterial activity) ([1]; strain EFA 15-5)
8%: inhibition at 30 µM [10]
1 µg/mL: MIC (anti-bacterial activity) ([1]; strain EFA 15-3) | MIC (anti-bacterial activity) ([2]; strain EFM 15-2) | MIC (anti-bacterial activity) ([2]; strain EFM 15-4)
0.5 µg/mL: MIC (anti-bacterial activity) ([2]; strain EFM 15-1) | MIC (anti-bacterial activity) ([2]; strain EFM 15-3) | MIC (anti-bacterial activity) ([2]; strain EFM 15-5) | MIC (anti-bacterial activity) ([4]; strain BCA 14-1) | MIC (anti-bacterial activity) ([4]; strain BCA 14-4) | MIC (anti-bacterial activity) ([4]; strain BCA 14-5) | MIC (anti-bacterial activity) ([4]; strain BCA 14-6) | MIC (anti-bacterial activity) ([4]; strain BCA 14-7) | MIC (anti-bacterial activity) ([4]; strain BCA 14-8) | MIC (anti-bacterial activity) ([4]; strain BCA 14-10) | MIC (anti-bacterial activity) ([5]; strain SPN 16-4) | MIC (anti-bacterial activity) ([6]; strain MRSA 15-2) | MIC (anti-bacterial activity) ([6]; strain MRSA 15-3) | MIC (anti-bacterial activity) ([6]; strain MRSA 15-4) | MIC (anti-bacterial activity) ([8]; strain MSSA 15-3) | MIC (anti-bacterial activity) ([8]; strain MSSA 15-6) | MIC (anti-bacterial activity) ([9]; strain MSSE 15-3)
0.03 µg/mL: MIC (anti-bacterial activity) ([9]; strain MSSE 15-5) | MIC (anti-bacterial activity) ([9]; strain MSSE 15-6)
0.25 µg/mL: MIC (anti-bacterial activity) ([6]; strain MRSA 15-1) | MIC (anti-bacterial activity) ([7]; strain MRSE 15-1) | MIC (anti-bacterial activity) ([7]; strain MRSE 15-2) | MIC (anti-bacterial activity) ([7]; strain MRSE 15-3) | MIC (anti-bacterial activity) ([7]; strain MRSE 15-7) | MIC (anti-bacterial activity) ([8]; strain MSSA 15-4) | MIC (anti-bacterial activity) ([8]; strain MSSA 15-5) | MIC (anti-bacterial activity) ([9]; strain MSSE 15-4)
32 µg/mL: MIC (anti-bacterial activity) ([3]; strain ECO+ 15-1) | MIC (anti-bacterial activity) ([3]; strain ECO+ 15-2)
64 µg/mL: MIC (anti-bacterial activity) ([3]; strain ECO+ 15-3) | MIC (anti-bacterial activity) ([3]; strain ECO+ 15-4) | MIC (anti-bacterial activity) ([3]; strain ECO− 15-1) | MIC (anti-bacterial activity) ([3]; strain ECO− 15-2) | MIC (anti-bacterial activity) ([3]; strain ECO− 15-3) | MIC (anti-bacterial activity) ([3]; strain ECO− 15-4)
